Laboratory results: patent publication US11312722B2, “Hsp90 inhibitors and uses thereof” (TRUSTEES OF BOSTON UNIVERSITY, priority 2019, dated 2022)

Assays:
[1] = test system: C. albicans clinical isolate (CaCi2); assay: Fungicidal activity: spotting of MIC cultures onto compound-free YPD agar; format: cell-based; settings: C. albicans CaCi2, spotted on YPD agar after 48 h exposure
Description: Color scale bar: no growth inhibition (green) to complete inhibition (black). Each shaded box represents the mean of technical duplicates. The experiment was repeated as an independent biological replicate to confirm results.
Each shaded box represents the mean of technical duplicates. Relative viable cell number was monitored by standard dye reduction assay after 3-hr incubation with resazurin at 37° C. FIG. 6B: Following exposure to compounds, aliquots of the culture in each well were spotted onto compound-free YPD agar and plates incubated at 30° C. for an additional 24 hours before imaging to assess viability. The entire experiment consisting of growth in liquid culture followed by spotting onto YPD agar was repeated once.
Antifungal sensitivity testing. […] Each compound was tested in duplicate in at least two independent experiments. […] Plates were photographed after 24 h of incubation at 30° C.

[2] = target: T1, C. albicans Hsp90 NBD (Candida albicans (strain SC5314 / ATCC MYA-2876) (Yeast), UniProt P46598); settings: cited from earlier work
[3] = target: T2, C. neoformans Hsp90 NBD (Cryptococcus neoformans, UniProt J9VVA4); assay: Protein thermal shift assay, C. neoformans Hsp90 NBD; format: binding; settings: equimolar protein and ligand (10 μM)
Description: […]. Using recombinant proteins, assay-independent nanomolar inhibitory constants (Ki) were defined for these compounds. Binding of the compounds to their relevant NBD by thermal shift denaturation assays was also confirmed. Thermal shift assays were performed under saturating ligand conditions, i.e. equimolar concentrations (10 μM) of protein and ligand. As a result, they can provide only qualitative evidence of target binding, but not a quantitative measurement of ligand affinity. […] […]. C. neoformans or C. albicans Hsp90 NBD was combined with equimolar concentrations of the indicated bioactive inhibitors (10 μM) or DMSO control, in technical triplicates. The protein was heated from 25 to 98.6° C. at 0.2° C./5 s in the presence of Sypro Orange dye. All compounds induce an increase in melting temperature relative to the DMSO control, reported as ΔTm.
Protein thermal shift assays. Thermal melting curves were determined using a Protein Thermal Shift Kit (ThermoFisher #4462263), employing a CFX384 Real-Time PCR System (Bio-Rad, C1000 Touch Thermal Cycler). Reactions were performed in a final volume of 10 μL, and contained purified C. albicans or C. neoformans Hsp90 NBD diluted to 250 μg/mL in Buffer HBS-P (GE Healthcare Life Sciences, 0.01 M HEPES pH 7.4, 0.15 M NaCl, 0.005% v/v Surfactant P20) with 10 μM synthetic analog or DMSO control, and 1× Sypro Orange dye solution. Samples were prepared in triplicate in 384-well white plates (Bio-Rad; HSP3805). The instrument was set to melt curve, step 1 (25° C., 2 min) and step 2 (ramp to 98.6° C., increasing 0.2° C. per 5 s cycle). The inflection point of each curve is defined as the protein melting temperature (Tm). Temperature shift, ΔTm, was recorded as the difference between the Tm of the fungal Hsp90 NBD with compound minus Tm of the protein without compound.

[4] = target: Hsp90 (C. neoformans whole cell lysate) (Cryptococcus neoformans, UniProt J9VVA4); format: binding; settings: for C. neo Active (biochemical): Yes/No call; for EC50: read-out: C. neo EC50
Method in brief: (§1)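 In this fluorescence polarization competition assay, compound titrations in buffer with 0.1 mg/mL bovine gamma globulin were mixed with fungal whole-cell lysate spiked with 0.1 nM Cy3-geldanamycin probe. Plates were incubated 4.5 h at room temperature. EC50 came from 4-parameter fits of probe displacement, normalized to GdA in the same lysate.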

[5] = test system: Hsp90 (C. neoformans whole cell lysate); format: binding; settings: Yes/No call
Method in brief: as §1

[6] = target: Hsp90 (C. albicans whole cell lysate) (Candida albicans (strain SC5314 / ATCC MYA-2876) (Yeast), UniProt P46598); assay: biochemical; format: binding; settings: for C. alb Active (biochemical): Yes/No call; for EC50: read-out: C. alb EC50
Method in brief: as §1

[7] = test system: Hsp90 (C. albicans whole cell lysate); assay: biochemical; format: binding; settings: for C. alb Selective: Yes/No call
Method in brief: as §1

[8] = target: T2, C. neoformans Hsp90 NBD; assay: FP assay with purified C. neoformans Hsp90 NBD (Ki); format: binding; settings: for C. neo Selectivity (FS): C. neo FS calculated using Ki
Description: Thermal shift assays were performed under saturating ligand conditions, i.e. equimolar concentrations (10 μM) of protein and ligand. As a result, they can provide only qualitative evidence of target binding, but not a quantitative measurement of ligand affinity. […] Titrations of the Cy3-GdA probe and purified proteins were evaluated to define assay conditions and to determine the dissociation constant Kd of the probe for each NBD. Serial dilutions of test Hsp90 inhibitors were then assayed in triplicate wells under these conditions. Non-linear 4-parameter curve fitting of raw displacement data was performed in GraphPad Prism 5.0 to determine IC50 values. Finally, inhibitory constants (Ki) were calculated as described previously.
NBD expression and purification. Recombinant Hsp90 NBDs were expressed and purified as previously described. Stock protein solutions in 50% glycerol were stored at −20° C. until dilution into relevant buffers and use for FP and thermal shift assays.

[9] = test system: C. neoformans (Strain H99); assay: Antifungal sensitivity testing (MIC), C. neoformans H99; format: cell-based; settings: for C. neo Active (cells): Yes/No call
[10] = target: T1, C. albicans Hsp90 NBD; assay: biochemical; format: binding
Description: (§2) SPR assays. For SPR experiments, Hsp90 NBD expression constructs were modified to encode a C-terminal AviTag™ for site-specific on-column biotinylation with a BirA biotin-ligase kit (Avidity LLC; BirA-500). SPR experiments were performed on a Biacore T200 instrument at 25° C. Biotinylated Hsp90 NBD was diluted to 40 μg/mL and immobilized on a streptavidin chip (Sensor Chip SA, GE Healthcare) at a density of 2000-2500 response units (RU) on the biosensor surface. […] Resulting sensorgrams were analyzed with a fit to a 1:1 binding model, using BIA evaluation software.

[11] = target: T2, C. neoformans Hsp90 NBD; assay: biochemical; format: binding; settings: SPR, 25° C., read-out: Biacore KD
Description: as §2

Hsp90 (C. neoformans whole cell lysate) (Cryptococcus neoformans, UniProt J9VVA4), sequence (J9VVA4 1-699): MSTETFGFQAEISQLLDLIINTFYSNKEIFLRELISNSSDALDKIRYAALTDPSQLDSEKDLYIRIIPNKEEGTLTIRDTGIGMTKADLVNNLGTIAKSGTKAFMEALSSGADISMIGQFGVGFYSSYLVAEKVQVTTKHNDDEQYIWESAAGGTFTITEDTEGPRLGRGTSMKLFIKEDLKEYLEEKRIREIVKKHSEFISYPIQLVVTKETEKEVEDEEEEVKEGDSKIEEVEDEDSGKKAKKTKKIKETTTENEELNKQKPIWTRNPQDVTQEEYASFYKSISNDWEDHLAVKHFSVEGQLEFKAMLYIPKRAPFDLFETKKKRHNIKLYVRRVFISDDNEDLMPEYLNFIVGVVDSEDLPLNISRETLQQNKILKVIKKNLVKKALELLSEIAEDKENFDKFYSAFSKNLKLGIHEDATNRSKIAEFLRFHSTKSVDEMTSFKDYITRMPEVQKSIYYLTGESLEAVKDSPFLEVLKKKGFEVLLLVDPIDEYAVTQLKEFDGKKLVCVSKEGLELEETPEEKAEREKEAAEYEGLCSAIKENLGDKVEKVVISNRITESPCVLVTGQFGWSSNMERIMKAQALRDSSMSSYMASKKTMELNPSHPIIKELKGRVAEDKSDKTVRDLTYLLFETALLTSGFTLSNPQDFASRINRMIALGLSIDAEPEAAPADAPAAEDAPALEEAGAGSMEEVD
T2 sequence (J9VVA4 1-699): as above
T1 sequence (P46598 1-240 limits assumed): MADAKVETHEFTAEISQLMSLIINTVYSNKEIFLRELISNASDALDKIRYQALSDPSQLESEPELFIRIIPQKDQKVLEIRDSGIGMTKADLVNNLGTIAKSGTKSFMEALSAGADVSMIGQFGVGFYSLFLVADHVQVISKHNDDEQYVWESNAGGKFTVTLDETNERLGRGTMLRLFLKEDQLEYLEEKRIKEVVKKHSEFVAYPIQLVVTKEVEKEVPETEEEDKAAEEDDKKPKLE

Structure (SMILES) | fungicidal activity in combination with fluconazole [1] | C. neoformans NBD ΔTm [3] | C. neo Active (biochemical) [4] | EC50 [4] | C. neo selective [5] | C. alb Active (biochemical) [6] | EC50 [6] | C. alb Selectivity (FS) [7] | C. alb Selective [7] | C. neo Selectivity (FS) [8] | C. neo MIC80 [9] | C. neo MIC90 [9] | C. neo Active (cells) [9] | further results
COc1ccc(Cn2ncc(C)c2Nc2cc(O)cc(O)c2C(=O)N2Cc3ccccc3C2)cc1 [Compound 41, 4-(2,3-Dihydro-1H-isoindole-2-carbonyl)-5-((1-((4-methoxyphenyl)methyl)-4-methyl-1H-pyrazol-5-yl)amino)benzene-1,3-diol] | fungicidal activity in combination with fluconazole | – | – | – | – | – | – | – | – | – | – | – | – | –
COc1ccc(CON=C2C=CC=CC3OC3CC(C)OC(=O)c3c(O)cc(O)cc3C2)cc1 (stereo not drawn) [CMLD013075] | – | – | – | – | – | – | – | – | – | – | – | – | – | binding selectivity for the C. albicans Hsp90 NBD compared to the human ortholog [2]: > 25 fold
Cc1cc(Nc2cc(O)cc(O)c2C(=O)N2Cc3ccccc3C2)n(Cc2ccccc2Cl)n1 [Compound 89, 5-((1-((2-Chlorophenyl)methyl)-3-methyl-1H-pyrazol-5-yl)amino)-4-(2,3-dihydro-1H-isoindole-2-carbonyl)benzene-1,3-diol] | fungicidal activity in combination with fluconazole | 12 °C | – | – | – | – | – | – | – | – | – | – | – | –
COc1ccc(Cn2nc(-c3ccccc3)cc2Nc2cc(O)cc(O)c2C(=O)N2Cc3ccccc3C2)cc1 [Compound 21, 4-(2,3-dihydro-1H-isoindole-2-carbonyl)-5-((1-((4-methoxyphenyl)methyl)-3-phenyl-1H-pyrazol-5-yl)amino)benzene-1,3-diol] | fungicidal activity in combination with fluconazole | 14 °C | – | – | – | – | – | – | – | – | – | – | – | –
COc1ccccc1-c1cc(Nc2cc(O)cc(O)c2C(=O)N2CC[C@H](NC(C)=O)C2)n(C)n1 [ACSM01348] | – | – | Yes | 620 nM | Yes | Yes | 2250 nM | >5 | Yes | 107.7 | >25 µM | >25 µM | No | –
COc1ccccc1-c1cc(Nc2cc(O)cc(O)c2C(=O)N2CC[C@H](NC(C)=O)C2)n(C)n1 [ACSM01349] | – | – | Yes | 246 nM | Yes | Yes | 1210 nM | 9.5 | Yes | 159.7 | >25 µM | >25 µM | No | –
Cn1nc(-c2ccccc2)cc1Nc1cc(O)cc(O)c1C(=O)N1Cc2ccncc2C1 [BUCMD00467] | – | – | – | 151 nM | – | Yes | 1040 nM | 0.4 | No | 57.3 | >25 µM | >25 µM | – | –
C[C@@H]1C[C@H]2O[C@@H]2/C=C\C=C\C(=O)Cc2c(Cl)c(O)cc(O)c2C(=O)O1 [Radicicol, radicicol] | – | – | – | – | – | – | – | – | – | – | – | – | – | Kd [10]: 2 nM; Kd [11]: 2 nM
Cn1nc(-c2ccc(C(F)(F)F)cc2)cc1Nc1cc(O)cc(O)c1C(=O)N1Cc2ccccc2C1 [Compound 124, 4-(2,3-Dihydro-1H-isoindole-2-carbonyl)-5-((1-methyl-3-(4-(trifluoromethyl)phenyl)-1H-pyrazol-5-yl)amino)benzene-1,3-diol] | – | 1 °C | – | – | – | – | – | – | – | – | – | – | – | Ki ([8]; FP, purified recombinant NBD): 190 nM
COc1ccccc1-c1cc(Nc2cc(O)cc(O)c2C(=O)N2CC[C@@H](OC)C2)n(C)n1 [ACSM01350] | – | – | Yes | 106 nM | Yes | Yes | 233 nM | 9.2 | Yes | 259.7 | >25 µM | >25 µM | No | –
